Values joined by “and” are separate entries in the source; they are usually repeats but may differ in a detail not shown here. Identical values can stand only once. Toxic doses and inconclusive results are not listed. How the source made its calls: active means survival T/C of 150% or more; inactive means T/C below 125% in these data.
System: P388 leukemia ip, CD2F1 mice, survival T/C
Experiment: NCI In Vivo Anticancer Drug Screen. Data for tumor model P388 Leukemia (intraperitoneal) in CD2F1 (CDF1) mice
Details: endpoint: median survival time, higher = longer survival
Summary of the method: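 Mice carrying the transplanted tumor received test compound or vehicle. Survival was recorded in each group, and the value is the treated-group measurement divided by that of the vehicle-treated control group.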

[1] = dose: 12.5 mg/kg/injection, schedule: Q01DX009 (ip), vehicle: saline
[2] = dose: 50.0 mg/kg/injection, schedule: Q01DX009 (ip), vehicle: saline with Tween-80
[3] = dose: 200.0 mg/kg/injection, schedule: Q01DX009 (ip), vehicle: saline with Tween-80
[4] = dose: 50.0 mg/kg/injection, schedule: Q01DX005 (ip), vehicle: saline with Tween-80
[5] = dose: 100.0 mg/kg/injection, schedule: Q01DX005 (ip), vehicle: saline with Tween-80
[6] = dose: 200.0 mg/kg/injection, schedule: Q01DX005 (ip), vehicle: saline with Tween-80
[7] = dose: 100.0 mg/kg/injection, schedule: Q01DX009 (ip), vehicle: saline with Tween-80
[8] = dose: 60.0 mg/kg/injection, schedule: Q01DX005 (ip), vehicle: saline with Tween-80
[9] = dose: 120.0 mg/kg/injection, schedule: Q01DX005 (ip), vehicle: saline with Tween-80
[10] = dose: 50.0 mg/kg/injection, schedule: Q01DX009 (ip), vehicle: Klucel (hydroxypropylcellulose) (HPC)
[11] = dose: 100.0 mg/kg/injection, schedule: Q01DX009 (ip), vehicle: Klucel (hydroxypropylcellulose) (HPC)
[12] = dose: 200.0 mg/kg/injection, schedule: Q01DX009 (ip), vehicle: Klucel (hydroxypropylcellulose) (HPC)
[13] = dose: 25.0 mg/kg/injection, schedule: Q01DX009 (ip), vehicle: saline with Tween-80
[14] = dose: 50.0 mg/kg/injection, schedule: Q01DX005 (ip), vehicle: Klucel (hydroxypropylcellulose) (HPC)
[15] = dose: 100.0 mg/kg/injection, schedule: Q01DX005 (ip), vehicle: Klucel (hydroxypropylcellulose) (HPC)
[16] = dose: 200.0 mg/kg/injection, schedule: Q01DX005 (ip), vehicle: Klucel (hydroxypropylcellulose) (HPC)

Measured: T/C

COC(=O)C1CC(C(=O)c2ccccc2)N2C=CC=C(C#N)C12 (stereo not drawn)
inactive: dose: 4.38 mg/kg/injection, schedule: Q01DX005 (ip), vehicle: Klucel (hydroxypropylcellulose) (HPC) 101 % of control | dose: 8.75 mg/kg/injection, schedule: Q01DX005 (ip), vehicle: Klucel (hydroxypropylcellulose) (HPC) 91 % of control | dose: 17.5 mg/kg/injection, schedule: Q01DX005 (ip), vehicle: Klucel (hydroxypropylcellulose) (HPC) 101 % of control

CCCCCCCCCCCCCCCCN1C(=O)/C(=C\c2ccc(O)cc2)SC1=Nc1ccccc1
inactive: [1] 90 % of control | dose: 25.0 mg/kg/injection, schedule: Q01DX009 (ip), vehicle: saline 88 % of control | [2] 95 % of control | dose: 50.0 mg/kg/injection, schedule: Q01DX009 (ip), vehicle: saline 91 % of control | [3] 92 % of control

CC1CCCN2C(=O)CN(c3ccccc3)CC(=O)N12 (stereo not drawn)
inactive: [4] 98 % of control | [5] 103 % of control | [6] 99 % of control

CC(CC(=O)O)(CC(=O)O)CC(=O)O
inactive: [2] 110 % of control | [7] 101 % of control | [3] 97 % of control

ClCc1nnc2n1-c1ccc(Cl)cc1SC2
inactive: [8] 106 % of control | [9] 107 % of control

CSC(=Nc1cccc(C)c1)NC#N
inactive: [10] 103 % of control | [11] 106 % of control | [12] 105 % of control

Cn1c(-c2ccccc2)cc2cc(CN)ccc21
inactive: [10] 100 % of control | [11] 100 % of control

O=S(=O)(Nc1cc(C(F)(F)F)ccc1Cl)c1ccc(F)cc1
inactive: [8] 104 % of control | [9] 96 % of control | dose: 240.0 mg/kg/injection, schedule: Q01DX005 (ip), vehicle: saline with Tween-80 100 % of control

CC(C)(C)c1ccc(S(=O)(=O)C[CH2][Sn]([CH3])([CH3])[CH3])cc1
inactive: dose: 6.25 mg/kg/injection, schedule: Q01DX009 (ip), vehicle: saline 104 % of control | [1] 87 % of control

CCCCCCCCCCN(CCCCCCCCCC)C(=O)C(C)OC(C)=O (stereo not drawn)
inactive: [4] 98 % of control | [5] 101 % of control | [6] 104 % of control

CC(=O)[O-].O=C(N/N=C/c1ccccc1[O-])c1ccccc1.[Zn+2]
inactive: [8] 95 % of control | [9] 106 % of control

CSC(=S)NN=C1CCCC1
inactive: dose: 12.5 mg/kg/injection, schedule: Q01DX009 (ip), vehicle: saline with Tween-80 101 % of control | [13] 101 % of control

Cn1c(=O)[nH]c(=O)c2nc(-c3ccc(Cl)cc3)cnc21
inactive: dose: 100.0 mg/kg/injection, schedule: Q04DX002 (ip), vehicle: saline with Tween-80 94 % of control | dose: 200.0 mg/kg/injection, schedule: Q04DX002 (ip), vehicle: saline with Tween-80 97 % of control | dose: 400.0 mg/kg/injection, schedule: Q04DX002 (ip), vehicle: saline with Tween-80 97 % of control

COc1ccc(-n2c(=O)c(N=Nc3ccccc3C)c(O)n(-c3ccccc3Cl)c2=S)cc1
inactive: dose: 100.0 mg/kg/injection, schedule: Q01DX001 (ip), vehicle: Klucel (hydroxypropylcellulose) (HPC) 100 % of control | dose: 200.0 mg/kg/injection, schedule: Q01DX001 (ip), vehicle: Klucel (hydroxypropylcellulose) (HPC) 99 % of control | dose: 400.0 mg/kg/injection, schedule: Q01DX001 (ip), vehicle: Klucel (hydroxypropylcellulose) (HPC) 95 % of control

CCCCCCCCCCCCn1c2nc(=O)[nH]c(=O)c-2nc2ccccc21
inactive: dose: 3.12 mg/kg/injection, schedule: Q01DX005 (ip), vehicle: saline with Tween-80 97 % of control | dose: 6.25 mg/kg/injection, schedule: Q01DX005 (ip), vehicle: saline with Tween-80 97 % of control | dose: 12.5 mg/kg/injection, schedule: Q01DX005 (ip), vehicle: saline with Tween-80 90 % of control | [5] 87 % of control | [6] 91 % of control

N#Cc1nnc2cc(-c3ccccc3)nn2c1-c1ccco1
inactive: dose: 60.0 mg/kg/injection, schedule: Q01DX005 (ip), vehicle: Klucel (hydroxypropylcellulose) (HPC) 98 % of control | dose: 120.0 mg/kg/injection, schedule: Q01DX005 (ip), vehicle: Klucel (hydroxypropylcellulose) (HPC) 90 % of control

COc1cc(Br)c(C(C)(C)C#N)cc1OC
inactive: [14] 101 % of control | [15] 101 % of control | [16] 100 % of control

COc1c(C)n(C)n(-c2ccccc2)c1=O
inactive: dose: 6.25 mg/kg/injection, schedule: Q01DX005 (ip), vehicle: saline 108 % of control | dose: 12.5 mg/kg/injection, schedule: Q01DX005 (ip), vehicle: saline 98 % of control | dose: 25.0 mg/kg/injection, schedule: Q01DX005 (ip), vehicle: saline 108 % of control | dose: 50.0 mg/kg/injection, schedule: Q01DX005 (ip), vehicle: saline 102 % of control | dose: 100.0 mg/kg/injection, schedule: Q01DX005 (ip), vehicle: saline 105 % of control | dose: 200.0 mg/kg/injection, schedule: Q01DX005 (ip), vehicle: saline 102 % of control

Cc1c(N=Nc2cccc(Cl)c2Cl)c(-c2ccccc2)nn1C(=S)S
inactive: [4] 106 % of control | [5] 94 % of control | [6] 103 % of control

O=C(c1cccs1)c1ccc(Cl)cc1Cl
inactive: [10] 107 % of control | [11] 103 % of control | [12] 104 % of control

Cc1c(CN2CCOC(c3ccccc3)C2C)c(=O)n(-c2ccccc2)n1C (stereo not drawn)
inactive: [10] 93 % of control | [11] 103 % of control

NC(Cc1ccccc1I)c1nn[nH]n1 (stereo not drawn)
inactive: [13] 107 % of control | [2] 102 % of control and 105 % of control and 111 % of control | [7] 98 % of control and 100 % of control and 95 % of control | [3] 110 % of control and 97 % of control | dose: 400.0 mg/kg/injection, schedule: Q01DX009 (ip), vehicle: saline with Tween-80 100 % of control and 96 % of control

C/C=C1/CN2C3CC1C1(C(=O)OC)C(OC(C)=O)[C@]4(C[C@H]21)c1cc(OC)ccc1N(C)C34 (stereo partly drawn)
inactive: dose: 3.5 mg/kg/injection, schedule: Q01DX005 (ip), vehicle: Klucel (hydroxypropylcellulose) (HPC) 115 % of control | dose: 7.0 mg/kg/injection, schedule: Q01DX005 (ip), vehicle: Klucel (hydroxypropylcellulose) (HPC) 108 % of control | dose: 14.0 mg/kg/injection, schedule: Q01DX005 (ip), vehicle: Klucel (hydroxypropylcellulose) (HPC) 94 % of control | dose: 28.0 mg/kg/injection, schedule: Q01DX005 (ip), vehicle: Klucel (hydroxypropylcellulose) (HPC) 100 % of control

COc1ccc(N2C(=O)c3ccc4c5ccc6c7c(ccc(c8ccc(c3c48)C2=O)c75)C(=O)NC6=O)cc1
inactive: dose: 12.5 mg/kg/injection, schedule: Q01DX005 (ip), vehicle: Klucel (hydroxypropylcellulose) (HPC) 89 % of control | dose: 25.0 mg/kg/injection, schedule: Q01DX005 (ip), vehicle: Klucel (hydroxypropylcellulose) (HPC) 90 % of control | [14] 90 % of control | [15] 90 % of control | [16] 89 % of control

Cc1cc(C)c(O)c(C(c2ccccc2)c2cc(C)cc(C)c2O)c1
inactive: [2] 99 % of control | [7] 118 % of control | [3] 115 % of control

CC[n+]1ccc(C(=O)NN)cc1
inactive: dose: 12.5 mg/kg/injection, schedule: Q04DX002 (ip), vehicle: saline with Tween-80 97 % of control | dose: 25.0 mg/kg/injection, schedule: Q04DX002 (ip), vehicle: saline with Tween-80 99 % of control | dose: 50.0 mg/kg/injection, schedule: Q04DX002 (ip), vehicle: saline with Tween-80 105 % of control
